From US7928140B2, “Benzothiazole PI3 kinase modulators for cancer treatment” (Amgen Inc., priority 2007, dated 2011)
Read-outs that look alike come from different tables or passages of the source.

Assays:
PI3K α = biological target: T1, PI3K α (Homo sapiens, UniProt P42336); assay: In vitro PI3 kinase enzyme assay (alpha), ATP loss, bioluminescence; assay type: biochemical; details: read-out: PI3Kα ATP loss IC50;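 also: purified p110α/p85 heterodimer acting on PtdIns(4,5)P2 at room temperature, remaining ATP read by luminescence, inhibition scaled between compound-free wells with and without enzyme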
T1 construct: Full length p110 subunits of PI3K α, β and δ, N-terminally labeled with polyHis tag; polyHis (N); made in house; host or cells: Sf9 insect cells (baculovirus)

PI3K β = biological target: T2, PI3K β (Homo sapiens, UniProt P42338); assay: In vitro PI3 kinase enzyme assay (beta), ATP loss, bioluminescence; assay type: biochemical; details: read-out: PI3Kβ ATP loss IC50;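 also: purified p110β/p85 heterodimer with PtdIns(4,5)P2 as acceptor, incubated at room temperature, leftover ATP read by luminescence, inhibition scaled to compound-free wells with and without enzyme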
T2 construct: Full length p110 subunits of PI3K α, β and δ, N-terminally labeled with polyHis tag; polyHis (N); made in house; host or cells: Sf9 insect cells (baculovirus)

[1] = system: phosphorylation of Serine 473 in Akt, HCT 116 human colon carcinoma cells; assay: Cell-based phospho-AKT Ser473 assay (MSD sandwich immunoassay, IGF-1 stimulated)
Experimental: This assay determines the ability of test compounds to inhibit the phosphorylation of […] in Akt using a MSD based sandwich immunoassay (Meso Scale Detection, catalogue # N411CAB-1). […] Prior to the assay cells were detached from the culture flask with trypsin, and re-suspended in complete media to give a final concentration of 1.6×10^5 cells per ml. Aliquots (100 μl) of the HCT116 cell suspension were seeded into each well of a 96 well tissue culture plate (Corning Incorporated COSTAR, catalogue#3595) to give a final density of 16,000 cells per well. Cells were then incubated overnight at 37° C. The following day the cells were treated with serially diluted test compounds and incubated for 2 hours at 37° C. […] As a maximum response control, wells contained 0.5% DMSO in place of test compound. The plates were mixed at 700 rpm for 2 min to ensure even distribution of the test compound and incubated for 2 hours at 37° C. Cells were then stimulated with insulin-like growth factor 1 (Sigma, product #13769) at final concentration of 100 ng/ml for 15 minutes at 37° C. The media was then removed and the cells treated with 80 μl cell-lysis buffer (MSD) containing a cocktail of protease and phosphatase inhibitors for one hour at 4° C. […] The detection antibody was removed and plates were then washed four times with 200 μl per well of Tris wash buffer. An aliquot of 150 μl of diluted MSD read buffer was then applied to each well, and the electrochemiluminescent signal was measured using a MSD SECTORTM plate reader. This instrument measures the intensity of emitted light to determine a quantitative measure of phosphorylated Akt in each well. The dose-response data obtained with each compound were analyzed and the IC50 inhibition of Akt phosphorylation at Ser473 calculated.

[2] = Homo sapiens, HCT-116, HCT 116 cells, read-out: HCT 116 pAKT IC50
[3] = Homo sapiens, HCT-116, read-out: HCT 116 pAKT IC50

T1 sequence (P42336 whole entry, species assumed): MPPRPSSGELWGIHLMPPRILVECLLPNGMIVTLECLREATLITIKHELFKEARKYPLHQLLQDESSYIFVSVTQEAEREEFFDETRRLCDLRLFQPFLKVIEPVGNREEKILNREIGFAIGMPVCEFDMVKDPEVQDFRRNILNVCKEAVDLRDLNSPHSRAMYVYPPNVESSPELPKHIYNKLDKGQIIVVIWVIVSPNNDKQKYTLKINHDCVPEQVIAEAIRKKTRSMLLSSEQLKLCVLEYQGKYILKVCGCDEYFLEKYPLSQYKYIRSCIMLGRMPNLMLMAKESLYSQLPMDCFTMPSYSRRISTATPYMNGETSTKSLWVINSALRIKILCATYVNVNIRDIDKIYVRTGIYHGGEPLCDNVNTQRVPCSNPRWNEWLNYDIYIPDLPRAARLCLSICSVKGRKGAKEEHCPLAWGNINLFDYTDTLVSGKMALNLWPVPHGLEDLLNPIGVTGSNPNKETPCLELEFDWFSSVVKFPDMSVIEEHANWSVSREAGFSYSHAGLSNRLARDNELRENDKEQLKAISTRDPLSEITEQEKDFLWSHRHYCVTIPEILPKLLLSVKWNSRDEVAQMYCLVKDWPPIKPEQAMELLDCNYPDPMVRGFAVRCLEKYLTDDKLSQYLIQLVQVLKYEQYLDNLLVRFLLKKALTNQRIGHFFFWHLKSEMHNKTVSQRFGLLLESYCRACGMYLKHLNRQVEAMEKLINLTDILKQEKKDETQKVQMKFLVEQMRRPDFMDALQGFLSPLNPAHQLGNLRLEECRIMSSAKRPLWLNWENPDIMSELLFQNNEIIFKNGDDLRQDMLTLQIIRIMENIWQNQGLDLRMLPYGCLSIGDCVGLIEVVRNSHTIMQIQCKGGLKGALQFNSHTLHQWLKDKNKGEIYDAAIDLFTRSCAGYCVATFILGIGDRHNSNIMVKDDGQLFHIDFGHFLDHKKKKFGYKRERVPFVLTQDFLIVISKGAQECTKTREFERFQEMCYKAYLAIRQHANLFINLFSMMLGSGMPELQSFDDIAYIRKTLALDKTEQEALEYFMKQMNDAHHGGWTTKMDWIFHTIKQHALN
T1 sequence (P27986 whole entry partner, species assumed): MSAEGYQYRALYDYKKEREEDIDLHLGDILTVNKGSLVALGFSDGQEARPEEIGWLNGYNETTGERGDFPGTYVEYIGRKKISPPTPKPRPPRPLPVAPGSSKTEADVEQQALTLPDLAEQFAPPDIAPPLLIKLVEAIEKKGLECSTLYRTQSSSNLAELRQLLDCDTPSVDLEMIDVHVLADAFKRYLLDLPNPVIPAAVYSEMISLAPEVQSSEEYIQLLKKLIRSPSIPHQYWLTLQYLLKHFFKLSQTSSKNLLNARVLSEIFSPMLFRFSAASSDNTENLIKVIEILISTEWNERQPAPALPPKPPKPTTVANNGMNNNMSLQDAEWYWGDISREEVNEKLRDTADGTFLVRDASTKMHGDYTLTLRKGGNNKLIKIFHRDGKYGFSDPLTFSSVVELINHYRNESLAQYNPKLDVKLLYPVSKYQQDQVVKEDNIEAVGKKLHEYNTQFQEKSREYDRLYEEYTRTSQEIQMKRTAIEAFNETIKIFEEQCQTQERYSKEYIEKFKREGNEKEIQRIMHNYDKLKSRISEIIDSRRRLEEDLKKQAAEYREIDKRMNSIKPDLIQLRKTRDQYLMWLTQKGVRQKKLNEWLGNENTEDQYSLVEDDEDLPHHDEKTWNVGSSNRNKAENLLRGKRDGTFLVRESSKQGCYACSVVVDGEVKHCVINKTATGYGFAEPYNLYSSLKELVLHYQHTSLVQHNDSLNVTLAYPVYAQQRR
T2 sequence (P42338 whole entry): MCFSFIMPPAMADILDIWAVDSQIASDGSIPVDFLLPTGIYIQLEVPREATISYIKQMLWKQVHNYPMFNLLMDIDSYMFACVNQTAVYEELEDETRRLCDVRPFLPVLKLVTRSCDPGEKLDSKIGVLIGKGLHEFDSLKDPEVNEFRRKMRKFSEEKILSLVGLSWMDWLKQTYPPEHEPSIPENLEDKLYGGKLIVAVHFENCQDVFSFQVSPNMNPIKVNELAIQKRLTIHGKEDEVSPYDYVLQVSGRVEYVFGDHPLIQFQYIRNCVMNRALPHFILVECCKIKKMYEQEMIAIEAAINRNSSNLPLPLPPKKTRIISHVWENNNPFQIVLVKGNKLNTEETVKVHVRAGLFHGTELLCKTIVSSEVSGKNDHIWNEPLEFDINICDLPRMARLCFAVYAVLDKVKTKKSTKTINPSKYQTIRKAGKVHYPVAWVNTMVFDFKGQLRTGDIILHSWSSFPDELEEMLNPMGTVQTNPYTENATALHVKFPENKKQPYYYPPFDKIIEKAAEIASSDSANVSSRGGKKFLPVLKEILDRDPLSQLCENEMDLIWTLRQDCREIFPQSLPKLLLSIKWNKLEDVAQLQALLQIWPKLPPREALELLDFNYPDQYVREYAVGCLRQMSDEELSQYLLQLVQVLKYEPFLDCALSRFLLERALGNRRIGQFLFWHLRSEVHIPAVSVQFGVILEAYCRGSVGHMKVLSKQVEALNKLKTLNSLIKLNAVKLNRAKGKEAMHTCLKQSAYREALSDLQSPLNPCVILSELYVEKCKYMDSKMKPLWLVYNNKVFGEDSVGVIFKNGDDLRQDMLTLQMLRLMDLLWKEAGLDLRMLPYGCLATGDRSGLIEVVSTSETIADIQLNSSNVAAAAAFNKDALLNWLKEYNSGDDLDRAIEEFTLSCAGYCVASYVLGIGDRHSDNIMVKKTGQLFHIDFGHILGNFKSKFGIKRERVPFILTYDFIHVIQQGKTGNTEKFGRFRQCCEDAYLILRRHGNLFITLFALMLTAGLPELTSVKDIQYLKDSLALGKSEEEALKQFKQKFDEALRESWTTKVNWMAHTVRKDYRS
T2 sequence (P27986 whole entry partner): as the sequence (P27986 whole entry partner, species assumed) above

Molecule	IC50 (PI3K α) [nM]	IC50 (PI3K β) [nM]	IC50 [1, 2] [nM]	IC50 [1, 3] [nM]	IC50 ([1]; HCT 116 cells, read-out: HCT 116 pAKT IC50) [nM]
CCc1ccc(S(=O)(=O)Nc2nccc(-c3ccc4nc(NC(C)=O)sc4c3)n2)cc1 [Example 84, N-(6-(2-(((4-ethylphenyl)sulfonyl)amino)-4-pyrimidinyl)-1,3-benzothiazol-2-yl)acetamide]	21.8	79.3	174	–	–
CC(=O)Nc1nc2ccc(-c3cnc(C(F)(F)F)c(O)c3)cc2s1 [Example 302, N-(6-(5-hydroxy-6-(trifluoromethyl)pyridin-3-yl)benzo[d]thiazol-2-yl)acetamide]	8.5	159	157	–	–
CC(=O)Nc1nc2ccc(-c3cnc(C)c(NS(=O)(=O)c4ccccc4F)c3)cc2s1 [Example 112, N-(6-(5-(((2-fluorophenyl)sulfonyl)amino)-6-methyl-3-pyridinyl)-1,3-benzothiazol-2-yl)acetamide]	5.5	9.1	16.9	–	–
Nc1nc2ccc(-c3cnc(Cl)c(NS(=O)(=O)c4ccc(F)cc4F)c3)cc2s1 [Example 311, N-(5-(2-amino-1,3-benzothiazol-6-yl)-2-chloro-3-pyridinyl)-2,4-difluorobenzenesulfonamide]	17.1	49.1	222	–	–
COCC(=O)Nc1nc2ccc(-c3cnc(Cl)c(N(C)C)c3)cc2s1 [Example 271, N-(6-(6-Chloro-5-(dimethylamino)pyridin-3-yl)benzo[d]thiazol-2-yl)-2-methoxyacetamide]	51.5	1230	312	–	–
CNc1nc2ccc(-c3cnc(Cl)c(NS(=O)(=O)c4ccccc4F)c3)cc2s1 [Example 320, N-(2-chloro-5-(2-(methylamino)-1,3-benzothiazol-6-yl)-3-pyridinyl)-2-fluorobenzenesulfonamide]	14.6	61.8	448	–	–
CC(=O)Nc1nc2ccc(-c3ccnc(OCc4ccc(C)cc4)n3)cc2s1 [Example 106, N-(6-(2-((4-methylbenzyl)oxy)-4-pyrimidinyl)-1,3-benzothiazol-2-yl)acetamide]	220	1240	2530	–	–
CC(=O)Nc1nc2ccc(-c3cncc(OCc4ccccc4)n3)cc2s1 [Example 135, N-(6-(6-(benzyloxy)-2-pyrazinyl)-1,3-benzothiazol-2-yl)acetamide]	54.2	219	1970	–	–
Nc1nc2ccc(-c3cnc(Cl)c(NS(=O)(=O)c4ccc(C(F)(F)F)cc4Cl)c3)cc2s1 [Example 308, N-(5-(2-amino-1,3-benzothiazol-6-yl)-2-chloro-3-pyridinyl)-2-chloro-4-(trifluoromethyl)benzenesulfonamide]	2.6	10.6	501	–	–
Nc1nc2ccc(-c3cnc(Cl)c(NS(=O)(=O)c4ccc(Cl)cc4F)c3)cc2s1 [Example 313, N-(5-(2-amino-1,3-benzothiazol-6-yl)-2-chloro-3-pyridinyl)-4-chloro-2-fluorobenzenesulfonamide]	13.6	27.9	424	–	–
CC(=O)Nc1nc2ccc(-c3ccnc(OCc4ccccc4)n3)cc2s1 [Example 3, N-(6-(2-(benzyloxy)-4-pyrimidinyl)-1,3-benzothiazol-2-yl)acetamide]	95.6	240	3510	–	–
CC(=O)Nc1nc2ccc(-c3ccnc(OCc4ccc5ncccc5c4)n3)cc2s1 [Example 22, N-(6-(2-(6-quinolinylmethoxy)-4-pyrimidinyl)-1,3-benzothiazol-2-yl)acetamide]	124	> 40000	> 40000	–	–
CC(=O)Nc1nc2ccc(-c3cnc(Cl)c(OC(F)F)c3)cc2s1 [Example 247, N-(6-(6-chloro-5-(difluoromethoxy)pyridin-3-yl)benzo[d]thiazol-2-yl)acetamide]	19.5	244	93.9	–	–
CC(=O)Nc1nc2ccc(-c3cncc(OCC#N)c3)cc2s1 [Example 288, N-(6-(5-(Cyanomethoxy)pyridin-3-yl)benzo[d]thiazol-2-yl)acetamide]	83.3	464	236	–	–
COc1ccc(S(=O)(=O)Nc2cc(-c3ccc4nc(NC(C)=O)sc4c3)cnc2Cl)cc1 [Example 163, N-(6-(6-Chloro-5-(4-methoxyphenylsulfonamido)pyridin-3-yl)benzo[d]thiazol-2-yl)acetamide]	3	3.8	3.8	–	–
COc1ccc(S(=O)(=O)Nc2cccc(-c3ccc4nc(NC(C)=O)sc4n3)c2)cc1 [Example 146, N-(5-(3-(4-methoxyphenylsulfonamido)phenyl)thiazolo[5,4-b]pyridin-2-yl)acetamide]	117	359	–	373	–
CC(=O)Nc1nc2ccc(-c3ccnc(N(C)S(=O)(=O)c4cccs4)n3)cc2s1 [Example 206, N-(6-(2-(N-methylthiophene-2-sulfonamido)pyrimidin-4-yl)benzo[d]thiazol-2-yl)acetamide]	177	194	381	–	–
CNc1nc2ccc(-c3cnc(Cl)c(NS(=O)(=O)c4ccc(C(C)=O)cc4)c3)cc2s1 [Example 321, 4-acetyl-N-(2-chloro-5-(2-(methylamino)-1,3-benzothiazol-6-yl)-3-pyridinyl)benzenesulfonamide]	12	22.2	672	–	–
CC(=O)Nc1nc2c(F)cc(-c3cncc(NS(=O)(=O)c4ccc(C(F)(F)F)cc4)c3)cc2s1 [Example 117, N-(4-fluoro-6-(5-(4-(trifluoromethyl)phenylsulfonamido)pyridin-3-yl)benzo[d]thiazol-2-yl)acetamide]	7.7	55.8	–	301	–
COc1nccc(-c2ccc3nc(NC(C)=O)sc3c2)n1 [Example 51, N-(6-(2-methoxy-4-pyrimidinyl)-1,3-benzothiazol-2-yl)acetamide]	505	> 40000	952	–	–
COc1cc(-c2ccc3nc(NC(C)=O)sc3c2)cnc1Br [Example 237, N-(6-(6-bromo-5-methoxypyridin-3-yl)benzo[d]thiazol-2-yl)acetamide]	8370	–	> 5000	–	–
CC(=O)Nc1nc2ccc(-c3cnc(Cl)c(NS(=O)(=O)c4cccc(F)c4)c3)cc2s1 [Example 183, N-(6-(6-chloro-5-(3-fluorophenylsulfonamido)pyridin-3-yl)benzo[d]thiazol-2-yl)acetamide]	–	10.4	16.9	–	–
CC(=O)Nc1nc2ccc(-c3ccnc(NS(=O)(=O)c4ccc(F)cc4)n3)cc2s1 [Example 80, N-(6-(2-(((4-fluorophenyl)sulfonyl)amino)-4-pyrimidinyl)-1,3-benzothiazol-2-yl)acetamide]	–	405	3220	–	–
COc1ccc(S(=O)(=O)Nc2nccc(-c3ccc4nc(NC(C)=O)sc4c3)n2)cc1 [Example 78, N-(6-(2-(((4-methoxyphenyl)sulfonyl)amino)-4-pyrimidinyl)-1,3-benzothiazol-2-yl)acetamide]	–	67.2	428	–	–
N-(6-(2-(3-morpholino)propoxy)-4-pyrimidinyl)-1,3-benzothiazol-2-yl)acetamide [Example 10]	–	11000	–	–	801
COc1ccc(S(=O)(=O)Nc2cncc(-c3ccc4nc(NC(C)=O)sc4c3)c2)cc1 [Example 195, N-(6-(5-(4-methoxyphenylsulfonamido)pyridin-3-yl)benzo[d]thiazol-2-yl)acetamide]	–	21.7	32.8	–	–
CC(=O)Nc1nc2ccc(-c3cnc(Cl)c(NS(=O)(=O)c4cccc(C(F)(F)F)c4)c3)cc2s1 [Example 172, N-(6-(6-chloro-5-(3-(trifluoromethyl)phenylsulfonamido)pyridin-3-yl)benzo[d]thiazol-2-yl)acetamide]	–	6.9	7	–	–
CC(=O)Nc1nc2ccc(-c3cnc(Cl)c(F)c3)cc2s1 [Example 238, N-(6-(6-chloro-5-fluoropyridin-3-yl)benzo[d]thiazol-2-yl)acetamide]	250	–	1490	–	–
CC(=O)Nc1nc2ccc(-c3ccnc(Sc4ccccc4C)n3)cc2s1 [Example 34, N-(6-(2-((2-methylphenyl)sulfanyl)-4-pyrimidinyl)-1,3-benzothiazol-2-yl)acetamide]	–	1090	2160	–	–
Nc1nc2ccc(-c3cnc(Cl)c(NS(=O)(=O)c4ccc(F)cc4)c3)cc2s1 [Example 192, N-(5-(2-aminobenzo[d]thiazol-6-yl)-2-chloropyridin-3-yl)-4-fluorobenzenesulfonamide]	–	11.6	151	–	–
